These results are taken from patent publication US12162878B2 (HINOVA PHARMACEUTICALS INC., priority 2018, dated 2024).

The experiment deals with CWR22RV1 cells. The experiment is described as follows: Inhibition of proliferation of CWR22RV1 cells (CCK-8). The note with it: Homo sapiens, CWR22Rv1, 144 h, 6 days. Format: cell-based, human. An outline of the steps: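 Cells seeded at 1500/well, cultured overnight, then exposed to compounds in 3-fold dilutions (9 concentrations from 10 μM top final, 0.1% DMSO) for 6 days at 37 °C. Viability read by CCK-8 absorbance at 450 nm after 2.5 h; IC50 from dose-response inhibition fit.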
For orientation: IC50 means the concentration at which inhibition is half-maximal. Lower therefore signals greater potency. `[2H]C([2H])([2H])n1cc(-c2cc(S(C)(=O)=O)ccc2N2CC3(COC3)C2)c2cc[nH]c2c1=O` [Compound 64, 6-trideuteromethyl-4-(5-(methylsulfonyl)-2-(2-oxa-6-aza-spiro[3.3]heptan-6-yl)phenyl)-1H-pyrrolo[2,3-c]pyridin-7(6H)-one] showed an IC50 of 380 nM.
As for `CC(=O)c1ccc(N2CCC3(CC2)CC3)c(-c2cn(C)c(=O)c3[nH]ccc23)c1` [Compound 223, 4-(5-acetyl-2-(6-aza-spiro[2.5]octan-6-yl)phenyl)-6-methyl-1H-pyrrolo[2,3-c]pyridin-7(6H)-one], the figure is 110 nM; as for `CCCCS(=O)(=O)Nc1ccc(N2CC3(CCC3)C2)c(-c2cn(C)c(=O)c3[nH]ccc23)c1` [Compound 13, N-(3-(6-methyl-7-oxo-6,7-dihydro-1H-pyrrolo[2,3-c]pyridin-4-yl)-4-(2-aza-spiro[3.3]heptan-2-yl)phenyl)butane-1-sulfonamide], 79 nM; as for `Cn1cc(-c2cc(NS(=O)(=O)C3CC3)ccc2N2CC3(CCC3)C2)c2cc[nH]c2c1=O` [Compound 10, N-(3-(6-methyl-7-oxo-6,7-dihydro-1H-pyrrolo[2,3-c]pyridin-4-yl)-4-(2-aza-spiro[3.3]heptan-2-yl)phenyl)cyclopropanesulfonamide], 29 nM.
As for `[2H]C([2H])([2H])n1cc(-c2cc(S(N)(=O)=O)ccc2N2CCC3(CC3)C2)c2cc[nH]c2c1=O` [Compound 200, 3-(6-trideuteromethyl-7-oxo-6,7-dihydro-1H-pyrrolo[2,3-c]pyridin-4-yl)-4-(5-aza-spiro[2.4]heptan-5-yl)benzensulfonamide], the figure is 6.7 nM; as for `CC(=O)Nc1ccc(N2CCC3(CC2)COC3)c(-c2cn(C)c(=O)c3[nH]ccc23)c1` [Compound 230], 250 nM.
With `[2H]C([2H])([2H])n1cc(-c2cc(S(=O)(=O)CC)ccc2N2CC3(COC3)C2)c2cc[nH]c2c1=O` [Compound 65, 4-(5-(ethylsulfonyl)-2-(2-oxa-6-aza-spiro[3.3]heptan-6-yl)phenyl)-6-trideuteromethyl-1H-pyrrolo[2,3-c]pyridin-7(6H)-one], the half-inhibitory concentration (IC50) came out at 410 nM.
As for `[2H]C([2H])([2H])n1cc(-c2cc(NS(C)(=O)=O)ccc2N2CC3(CCC3)C2)c2cc[nH]c2c1=O` [Compound 44, N-(3-(6-trideuteromethyl-7-oxo-6,7-dihydro-1H-pyrrolo[2,3-c]pyridin-4-yl)-4-(2-aza-spiro[3.3]heptan-2-yl)phenyl)methanesulfonamide], the figure is 45 nM.
As for `[2H]C([2H])([2H])n1cc(-c2cc(S(C)(=O)=O)ccc2N2CCC3(CC2)CC3C(=O)O)c2cc[nH]c2c1=O` (stereo not drawn) [Compound 69, 6-(2-(6-trideuteromethyl-7-oxo-6,7-dihydro-1H-pyrrolo[2,3-c]pyridin-4-yl)-4-(methylsulfonyl)phenyl)-6-aza-spiro[2.5]octan-1-carboxylic acid], the concentration for half-maximal inhibition (IC50) worked out at 570 nM.
As for `CCCCS(=O)(=O)c1ccc(N2CC3(COC3)C2)c(-c2cn(C)c(=O)c3[nH]ccc23)c1` [Compound 36, 4-(5-(butylsulfonyl)-2-(2-oxa-6-aza-spiro[3.3]heptan-6-yl)phenyl)-6-methyl-1H-pyrrolo[2,3-c]pyridin-7(6H)-one], the figure is 560 nM; as for `Cn1cc(-c2cc(NC(=O)CCC(=O)O)ccc2N2CCC3(CC2)CC3)c2cc[nH]c2c1=O` [Compound 247, 4-((3-(6-methyl-7-oxo-6,7-dihydro-1H-pyrrolo[2,3-c]pyridin-4-yl)-4-(6-aza-spiro[2.5]octan-6-yl)phenyl)amino)-4-oxobutyric acid], 670 nM.
As for `[2H]C([2H])([2H])n1cc(-c2cc(S(C)(=O)=O)ccc2N2CCC3(CC3)C2)c2cc[nH]c2c1=O` [Compound 54, 6-trideuteromethyl-4-(5(methylsulfonyl)-2-(5-aza-spiro[2.4]heptan-5-yl)phenyl)-1H-pyrrolo[2,3-c]pyridin-7(6H)-one], the figure is 18 nM.
